Target: recombinant PIM-1 (Homo sapiens, UniProt P11309)
Assay: PIM-1 kinase assay (radiometric, 15 uM ATP, DMSO 4%)
Assay type: biochemical
Conditions: Table 1; % inhibition at the high dose (2 micromolar) in a single screening assay; 15 μM ATP
Protocol: The following procedure was used to assay the PIM-1 kinase activity of compounds of the invention. Other methods for assaying PIM-1 and other PIM kinases, as well as methods to assay for activity against the various kinases in FIG. 1, are known in the art.
(specific activity approx. 500 cpm/pmol), DMSO 4% and test inhibitor compound at the required concentration. The reaction was initiated by the addition of the Magnesium ATP mixture. After 40 min incubation at 23° C., the reactions were quenched by the addition of 100 ul 0.75% Phosphoric acid, and the labeled peptide collected by filtration through a phosphocellulose filter plate. The plate was washed 4 times with 0.075% phosphoric acid (100 ul per well) and then, after the addition of scintillation fluid (20 ul per well), the counts were measured by a scintillation counter.

Sequence of recombinant PIM-1 (P11309 whole entry): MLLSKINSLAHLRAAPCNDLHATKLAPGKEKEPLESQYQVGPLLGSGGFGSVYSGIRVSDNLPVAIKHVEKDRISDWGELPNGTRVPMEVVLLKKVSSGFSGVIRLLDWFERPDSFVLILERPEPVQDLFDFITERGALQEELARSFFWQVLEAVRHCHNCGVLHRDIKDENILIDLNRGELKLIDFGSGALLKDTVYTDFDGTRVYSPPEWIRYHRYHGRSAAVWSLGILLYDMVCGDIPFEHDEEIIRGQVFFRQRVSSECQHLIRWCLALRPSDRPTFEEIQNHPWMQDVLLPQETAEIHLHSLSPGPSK

In order of rising inhibition at 2 µM:
1. O=C1Nc2ccccc2/C1=C\c1ccc(-c2ccc(Cl)c(C(=O)NCC3CCCN3)c2)o1 (stereo not drawn) [Compound 29]  -33.4%
2. Cc1cc(NCCN2CCCC2)c2cccc(-c3ccc(/C=C4/C(=O)Nc5ccc(Cl)cc54)o3)c2n1 [Compound 139]  -23.4%
3. CN1CCCCC1CNC(=O)c1cccc(-c2ccc(/C=C3/C(=O)Nc4cccc(Br)c43)o2)c1 (stereo not drawn) [Compound 45]  -21.9%
4. O=C1Nc2ccc(F)cc2/C1=C\c1cc(-c2cccc(C(=O)NCc3ccncc3)c2)co1 [Compound 95]  -19.1%
5. O=C1CN(C(=O)c2cccc(-c3ccc(/C=C4/C(=O)Nc5ccccc54)o3)c2)CCN1 [Compound 23]  -14.2%
6. CN1CCCCC1CNC(=O)c1cccc(-c2ccc(/C=C3/C(=O)Nc4ccc(Cl)cc43)o2)c1 (stereo not drawn) [Compound 44]  -9.22%
7. O=C1Nc2c(F)cccc2/C1=C\c1ccc(-c2ccc(Cl)c(C(=O)NCCN3CCCC3)c2)o1 [Compound 104]  -5.3%
8. Cn1cncc1CNC(=O)c1ccccc1-c1ccc(/C=C2/C(=O)Nc3ccccc32)o1 [Compound 59]  -4.35%
9. O=C1Nc2ccc(F)cc2/C1=C\c1ccc(-c2ccccc2C(=O)NCCN2CCCC2)o1 [Compound 62]  0.28%
10. O=C1Nc2ccccc2/C1=C\c1ccc(-c2ccccc2C(=O)NCCN2CCCC2)o1 [Compound 54]  3.52%
11. CN1CCCCC1CNC(=O)c1ccc(-c2ccc(/C=C3/C(=O)Nc4ccccc43)o2)cn1 (stereo not drawn) [Compound 133]  7.61%
12. O=C1Nc2c(cccc2C(F)(F)F)/C1=C\c1ccc(-c2cccc(C(=O)NCCN3CCCC3)c2)o1 [Compound 50]  8.16%
13. CN1CCCCC1CNC(=O)c1cccc(-c2ccc(/C=C3/C(=O)Nc4c(Cl)cccc43)o2)c1 (stereo not drawn) [Compound 42]  9.73%
14. O=C1Nc2ccc(C(=O)NCc3ccccc3)cc2/C1=C\c1ccc(-c2cccc(C(=O)NCCN3CCCC3)c2)o1 [Compound 8]  11.5%
15. CN1CCCC(NC(=O)c2ccccc2-c2ccc(/C=C3/C(=O)Nc4ccccc43)o2)C1 (stereo not drawn) [Compound 56]  13.8%
16. CN1CCN(C(=O)c2ccc(-c3ccc(/C=C4/C(=O)Nc5ccccc54)o3)cn2)CC1 [Compound 136]  15.2%
17. CN1CCCCC1CNC(=O)c1cc(-c2ccc(/C=C3/C(=O)Nc4ccc(F)cc43)o2)ccc1Cl (stereo not drawn) [Compound 76]  15.7%
18. CN1CCC(N(C)C(=O)c2ccccc2-c2ccc(/C=C3/C(=O)Nc4ccc(F)cc43)o2)C1 (stereo not drawn) [Compound 64]  18.2%
19. CN1CCCN(C(=O)c2ccc(-c3ccc(/C=C4/C(=O)Nc5ccccc54)o3)cn2)CC1 [Compound 137]  20.6%
20. Cc1cnc(CNC(=O)c2cccc(-c3ccc(/C=C4/C(=O)Nc5ccc(Cl)cc54)o3)c2)cn1 [Compound 107]  21%
21. CN(C)C(=O)c1cccc(-c2ccc(/C=C3/C(=O)Nc4ccc(Cl)cc43)o2)c1 [Compound 175]  21.2%
22. CC1CCN(CCCNC(=O)c2cccc(-c3ccc(/C=C4/C(=O)Nc5ccc(Cl)cc54)o3)c2)CC1 [Compound 121]  25.2%
23. O=C1Nc2ccc(Cl)cc2/C1=C\c1ccc(-c2cccc(C(=O)NCc3ccnc(N4CCCC4)c3)c2)o1 [Compound 141]  26.3%
24. Cc1cnc(CNC(=O)c2ccc(-c3ccc(/C=C4/C(=O)Nc5ccc(F)cc54)o3)cc2)cn1 [Compound 82]  26.6%
25. O=C1Nc2ccccc2/C1=C\c1ccc(-c2ccc(C(=O)NCCN3CCCC3)nc2)o1 [Compound 128]  27.2%
26. CCN(CC)C(=O)c1cccc(-c2ccc(/C=C3/C(=O)Nc4ccc(Cl)cc43)o2)c1 [Compound 173]  29.2%
27. CN(C)C1CCN(C(=O)c2ccc(-c3ccc(/C=C4/C(=O)Nc5ccccc54)o3)cn2)CC1 [Compound 138]  30.5%
28. CN1C(=O)/C(=C/c2ccc(-c3cccc(C(=O)O)c3)o2)c2ccccc21 [Compound 2]  31.6%
29. CCOC(=O)c1cncc(-c2ccc(/C=C3/C(=O)Nc4ccc(Cl)cc43)o2)c1 [Compound 145]  34.5%
30. CN(C)CCNC(=O)c1cc(-c2ccc(/C=C3/C(=O)Nc4ccccc43)o2)ccc1Cl [Compound 24]  36.7%
31. CC1CCCN(CCCNC(=O)c2cccc(-c3ccc(/C=C4/C(=O)Nc5ccc(Cl)cc54)o3)c2)C1 (stereo not drawn) [Compound 122]  39.3%
32. Cc1cnc(CNC(=O)c2cccc(-c3ccc(/C=C4/C(=O)Nc5ccc(F)cc54)o3)c2)cn1 [Compound 18]  42.3%
33. O=C1Nc2ccccc2/C1=C\c1ccc(-c2ccc(C(=O)O)c(O)c2)o1 [Compound 170]  43%
34. O=C1Nc2ccccc2/C1=C\c1ccc(-c2ccc(C(=O)NCc3ccncc3)nc2)o1 [Compound 135]  43.6%
35. COCCNC(=O)c1cccc(-c2ccc(/C=C3/C(=O)Nc4ccc(F)cc43)o2)c1 [Compound 17]  49.6%
36. CN(C)C1CCN(C(=O)c2ccc(-c3ccc(/C=C4/C(=O)Nc5ccc(F)cc54)o3)cc2)CC1 [Compound 87]  51.9%
37. CN1CCCC(NC(=O)c2ccc(-c3ccc(/C=C4/C(=O)Nc5ccc(F)cc54)o3)cc2)C1 (stereo not drawn) [Compound 85]  84.5%
38. O=C1Nc2ccccc2/C1=C\c1ccc(-c2cc(C(=O)NCCN3CCCC3)ccc2F)o1 [Compound 78]  88.3%
39. CN1CCCCC1CNC(=O)c1ccc(-c2ccc(/C=C3/C(=O)Nc4ccc(F)cc43)o2)cc1 (stereo not drawn) [Compound 86]  90.6%

`O=C1Nc2ccc(F)cc2/C1=C\c1ccc(-c2ccc(Cl)c(C(=O)NCCN3CCCC3)c2)o1` [Compound 12] was tested, and the “PIM-1 Inhibition @ 15 μM ATP” value was 35.20%.

Same assay, conditions: Table 1; given for compounds with IC50 at or below 2 micromolar; 15 uM ATP; read-out: PIM-1 IC50

`O=C1Nc2ccc(Cl)cc2/C1=C\c1ccc(-c2cccc(C(=O)NCC(O)c3ccccn3)c2)o1` (stereo not drawn) [Compound 188] and `O=C1Nc2ccc(Cl)cc2/C1=C\c1ccc(-c2cccc(C(=O)NCC(O)c3ccccc3)c2)o1` (stereo not drawn) [Compound 180] cannot be ordered by IC50: under 1000 nM for the first, under 1000 nM for the second.

`CCN(CC)CC(=O)Nc1cccc(-c2ccc(/C=C3/C(=O)Nc4ccccc43)o2)c1` [Compound 187] and `CCN(CC)CCNC(=O)c1cccc(-c2ccc(/C=C3/C(=O)Nc4ccccc43)o2)c1` [Compound 4] cannot be ordered by IC50: under 1000 nM for the first, under 1000 nM for the second.

`O=C1Nc2ccc(Cl)cc2/C1=C\c1ccc(-c2cccc(C(=O)NCc3ccncc3)c2)o1` [Compound 108] and `O=C1Nc2ccc(Cl)cc2/C1=C\c1ccc(-c2cccc(C(=O)NCc3cccnc3)c2)o1` [Compound 116] cannot be ordered by IC50: under 1000 nM for the first, under 1000 nM for the second.

`CN1CCCCC1CNC(=O)c1ccc(-c2ccc(/C=C3/C(=O)Nc4ccccc43)o2)cc1` (stereo not drawn) [Compound 37] and `CN1CCCCC1CNC(=O)c1ccc(-c2ccc(/C=C3/C(=O)Nc4ccc(F)cc43)o2)cc1` (stereo not drawn) [Compound 86] cannot be ordered by IC50: under 2000 nM for the first, under 1000 nM for the second.

`CCN(CC)CCNC(=O)c1cncc(-c2ccc(/C=C3/C(=O)Nc4ccc(Cl)cc43)o2)c1` [Compound 152] and `CCN(CC)CCNC(=O)c1ccc(Cl)c(-c2ccc(/C=C3/C(=O)Nc4ccc(F)cc43)o2)c1` [Compound 97] cannot be ordered by IC50: under 1000 nM for the first, under 1000 nM for the second.

`CN1CCC(N(C)C(=O)c2ccc(Cl)c(-c3ccc(/C=C4/C(=O)Nc5ccc(F)cc54)o3)c2)C1` (stereo not drawn) [Compound 99] and `CN1CCCC(NC(=O)c2ccc(Cl)c(-c3ccc(/C=C4/C(=O)Nc5ccc(F)cc54)o3)c2)C1` (stereo not drawn) [Compound 101] cannot be ordered by IC50: under 1000 nM for the first, under 2000 nM for the second.

`COC(=O)c1ccc2c(c1)/C(=C\c1ccc(-c3cccc(C(=O)NCCN4CCCC4)c3)o1)C(=O)N2` [Compound 5] and `O=C1Nc2ccc(F)cc2/C1=C\c1ccc(-c2cc(C(=O)NCCN3CCCC3)ccc2Cl)o1` [Compound 13] cannot be ordered by IC50: under 1000 nM for the first, under 2000 nM for the second.

`O=C1Nc2ccc(Cl)cc2/C1=C\c1ccc(-c2cccc(C(=O)NC3=NCCS3)c2)o1` [Compound 174] and `Cn1cncc1CNC(=O)c1cccc(-c2ccc(/C=C3/C(=O)Nc4ccc(Cl)cc43)o2)c1` [Compound 110] cannot be ordered by IC50: under 1000 nM for the first, under 1000 nM for the second.

`CN(CCN1CCCC1)C(=O)c1ccc(-c2ccc(/C=C3/C(=O)Nc4ccccc43)o2)cc1` [Compound 34] and `O=C(CCN1CCCC1)Nc1cccc(-c2ccc(/C=C3/C(=O)Nc4ccccc43)o2)c1` [Compound 184] cannot be ordered by IC50: under 1000 nM for the first, under 1000 nM for the second.

`O=C1Nc2ccccc2/C1=C\c1ccc(-c2cccc(CO)c2)o1` [Compound 163] and `O=C(CN1CCCC1)Nc1cccc(-c2ccc(/C=C3/C(=O)Nc4ccccc43)o2)c1` [Compound 186] cannot be ordered by IC50: under 2000 nM for the first, under 1000 nM for the second.

`CN1CCCC(NC(=O)c2ccc(-c3ccc(/C=C4/C(=O)Nc5ccc(F)cc54)o3)cc2)C1` (stereo not drawn) [Compound 85] and `CN1CCCC(NC(=O)c2cncc(-c3ccc(/C=C4/C(=O)Nc5ccc(Cl)cc54)o3)c2)C1` (stereo not drawn) [Compound 149] cannot be ordered by IC50: under 2000 nM for the first, under 1000 nM for the second.

`CN1CCCN(C(=O)c2cccc(-c3ccc(CC4C(=O)Nc5ccc(Cl)cc54)o3)c2)CC1` (stereo not drawn) [Compound 197] and `CN1CCCN(C(=O)c2cncc(-c3ccc(/C=C4/C(=O)Nc5ccc(Cl)cc54)o3)c2)CC1` [Compound 154] cannot be ordered by IC50: under 1000 nM for the first, under 1000 nM for the second.

`CN(C)C1CCN(C(=O)c2ccc(-c3ccc(/C=C4/C(=O)Nc5ccc(F)cc54)o3)cc2)CC1` [Compound 87] and `CN(C)C1CCN(C(=O)c2ccc(-c3ccc(/C=C4/C(=O)Nc5ccccc54)o3)cc2)CC1` [Compound 38] cannot be ordered by IC50: under 2000 nM for the first, under 2000 nM for the second.

`O=C1Nc2ccccc2/C1=C\c1ccc(-c2ccc3ccc(NCCN4CCCC4)nc3c2)o1` [Compound 155] and `O=C1Nc2ccccc2/C1=C\c1ccc(-c2cc(C(=O)NCCN3CCCC3)ccc2F)o1` [Compound 78] cannot be ordered by IC50: under 1000 nM for the first, under 1000 nM for the second.

`CCN1CCCC1CNC(=O)c1ccc(-c2ccc(/C=C3/C(=O)Nc4ccccc43)o2)cc1` (stereo not drawn) [Compound 32] and `Cn1cncc1CNC(=O)c1ccc(-c2ccc(/C=C3/C(=O)Nc4ccccc43)o2)cc1` [Compound 36] cannot be ordered by IC50: under 1000 nM for the first, under 1000 nM for the second.

`O=C1Nc2ccc(Cl)cc2/C1=C\c1ccc(-c2cccc(C(=O)NCCCn3ccnc3)c2)o1` [Compound 123] and `O=C1Nc2ccc(Cl)cc2/C1=C\c1ccc(-c2cccc(C(=O)NCCCN3CCOCC3)c2)o1` [Compound 124] cannot be ordered by IC50: under 1000 nM for the first, under 1000 nM for the second.

From US20120190669A1, “OXINDOLE COMPOUNDS” (CYLENE PHARMACEUTICALS, INC., priority 2008, published 2012)
